Laboratory results published in publication PMC11184945, “Inhibition mechanism investigation of quercetagetin as a potential tyrosinase inhibitor” (Frontiers in Chemistry, 2024).

Target: T1, tyrosinase (mushroom) (Agaricus bisporus, UniProt C7FF04)
T1 construct: gene PPO3
Test: L-dopa oxidation assay at […] nm with Lineweaver-Burk kinetics (Ki […], Kis […]); static fluorescence quenching, CD
Assay type: biochemical

T1 sequence (C7FF04 2-392): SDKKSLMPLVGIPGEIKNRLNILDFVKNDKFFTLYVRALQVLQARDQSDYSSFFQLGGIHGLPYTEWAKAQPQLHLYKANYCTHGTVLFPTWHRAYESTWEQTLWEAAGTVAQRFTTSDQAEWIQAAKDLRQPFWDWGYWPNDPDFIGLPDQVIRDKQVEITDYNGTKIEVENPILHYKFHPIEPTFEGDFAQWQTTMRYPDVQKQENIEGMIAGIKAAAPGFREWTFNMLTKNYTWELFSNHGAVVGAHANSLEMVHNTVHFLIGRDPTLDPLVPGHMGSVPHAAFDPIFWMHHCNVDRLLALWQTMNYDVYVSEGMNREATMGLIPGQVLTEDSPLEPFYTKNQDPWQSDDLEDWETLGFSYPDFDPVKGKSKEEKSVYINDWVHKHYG

O=c1c(O)c(-c2ccc(O)c(O)c2)oc2cc(O)c(O)c(O)c12 [quercetagetin, 3,3′,4′,5,6,7-hexahydroxyflavone]
IC50: 190 ± 10 µM
